Assay results: US11679107B2 (Eisai R&D Management Co., Ltd., priority 2018, dated 2023)
Read-outs that look alike come from different tables or passages of the source.

Columns and labels:
[1] = in vivo; cited from earlier work
SF3b complexes = target: T1, SF3b complexes (Homo sapiens, UniProt O75533+Q7RTV0); assay: Scintillation proximity assay (SPA) with [3H]-labelled pladienolide probe; type: binding; conditions: SF3B1 (WT); geometric mean; read-out: SPA-ATS GMean IC50 (nM) SF3B1 (WT)
T1 construct: endogenous in cells; host or cells: Nuclear extracts; A HeLa S3 extract preparation is described for the in vitro splicing assay
Method in brief: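 SF3b complexes captured from nuclear extracts on anti-SF3B1 antibody SPA beads; test compounds pre-incubated 30 min before 2.5 nM [3H]-pladienolide probe added, then 30 min incubation. Bound probe read by scintillation; values from non-linear regression of concentration–response curves.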

[2] = test system: Panc 05.04 cells (SF3b K700E mutant); assay: Cell proliferation and viability, CellTiter-Glo, 72 hours; type: cell-based; conditions: for GI50: Panc 05.04, 72 h, geometric mean
Method in brief: (§1)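 RPMI-1640/10% FBS (Panc: + insulin, FBS 15%); 11-pt half-log dose, ~10 μM-100 pM, 0.1% DMSO; 37° C, 5% CO2; ATP luminescence read; % inhibition vs T0 and vehicle, −100% cidal to 100% uninhibited growth.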

[3] = test system: NCI-H1568 cells (high MCL1); assay: as above; type: cell-based; conditions: for GI50: NCI-H1568, 72 h, geometric mean
Method in brief: as §1

[4] = test system: Ad2 variant pre-mRNAs spliced in HeLa S3 nuclear extracts; assay: In vitro splicing assay (IVS), RT-qPCR of spliced product; type: biochemical; conditions: for IC50: geometric mean
Method in brief: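 Read-out is one-step TaqMan RT-qPCR of spliced Ad2 mRNA with Ftz as reference, normalized to DMSO and fit by non-linear regression. Reactions held HeLa S3 nuclear extract, 2 ng Ad2-derived pre-mRNA and test compound, with 15 min preincubation. Splicing was started with ATP-containing activation buffer and run 90 min at 30 °C.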

[5] = PANC0504.1 cells, −100% cidal, 0% static, 100% maximal growth
[6] = read-out: CTGlo-ATS GMean GI50 (nM) 72 h PANC0504.1, PANC0504.1 cells, 72 h
[7] = read-out: CTGlo-ATS GMean GI50 (nM) 72 h NCIH1568.1, NCIH1568.1 cells, 72 h
[8] = NCIH1568.1 cells, −100% cidal, 0% static, 100% maximal growth
[9] = Ad2.1 pre-mRNA substrate, read-out: qPCR-IVS-ATS GMean IC50 (nM) Ad2.1
[10] = Ad2.2 pre-mRNA substrate, read-out: qPCR-IVS-ATS GMean IC50 (nM) Ad2.2

Molecule | plasma half-life [1] | IC50 (SF3b complexes) | CTGlo-ATS Mean MinResponse % 72 h PANC0504.1 [2, 5] | GI50 [2, 6] | GI50 [3, 7] | CTGlo-ATS Mean MinResponse % 72 h NCIH1568.1 [3, 8] | IC50 [4, 9] | IC50 [4, 10] | CTGlo-ATS Mean MinResponse % 72 h PANC0504.1 ([2]; PANC0504.1, -100% = cidal, 0% = static, 100% = uninhibited growth) | GI50 ([2]; read-out: CTGlo-ATS GMean GI50 (nM) 72 h PANC0504.1, 72 h, PANC0504.1) | CTGlo-ATS Mean MinResponse % 72 h NCIH1568.1 ([3]; NCIH1568.1, -100% = cidal, 0% = static, 100% = uninhibited growth) | GI50 ([3]; read-out: CTGlo-ATS GMean GI50 (nM) 72 h NCIH1568.1, 72 h, NCIH1568.1) | Ratio Ad2.1/2.2 ([4]; ratio of IVS IC50 Ad2.1 to Ad2.2)
tremelimumab | approximately 22 days |  |  |  |  |  |  |  |  |  |  |  | 
C/C(=C\c1cc(F)c2cnn(C)c2c1)[C@H]1OC(=O)C[C@H](O)CC[C@H](C)[C@@H](OC(=O)N2CCN(C)CC2)/C=C/[C@@H]1C [Compound 101] |  | 1.1 nM | −94.474% | 9.78 nM | 7.68 nM | −64.073% | 1810 nM | 4.13 nM |  |  |  |  | 
C/C(=C\c1cc(F)cc(N2CCN(C(=O)Cn3cccn3)CC2)c1)[C@H]1OC(=O)C[C@H](O)CC[C@H](C)[C@@H](OC(=O)N2CCNCC2)/C=C/[C@@H]1C [Compound 235, [(2S,3S,4E,6R,7S,10R)-2-[(E)-1-[3-fluoro-5-[4-(2-pyrazol-1-ylacetyl)piperazin-1-yl]phenyl]prop-1-en-2-yl]-10-hydroxy-3,7-dimethyl-12-oxo-1-oxacyclododec-4-en-6-yl] piperazine-1-carboxylate] |  | 5.56 nM |  |  |  |  | 16 nM | 15.1 nM | −84.459% | 1.94 nM | −84.925% | 2.35 nM | 1.057
C/C(=C\c1cc(F)cc(N2CCC[C@@H]2CO)c1)[C@H]1OC(=O)C[C@H](O)CC[C@H](C)[C@@H](OC(=O)N2CCN(C)CC2)/C=C/[C@@H]1C [Compound 44] |  | 8.26 nM | −92.314% | 41.5 nM | 67.2 nM | −14.871% | 12800 nM | 86.6 nM |  |  |  |  | 
C/C(=C\c1cc(F)cc(N2CC[C@@H](O)C2)c1)[C@H]1OC(=O)C[C@H](O)CC[C@H](C)[C@@H](OC(=O)N2CCN(C)CC2)/C=C/[C@@H]1C [Compound 34] |  | 3.18 nM | −85.656% | 14 nM | 9.46 nM | −55.438% | 56.5 nM | 26.9 nM |  |  |  |  | 
